Laboratory results from US8871767B2, “2-arylimidazo[1,2-B]pyridazine, 2-phenylimidazo[1,2-A]pyridine, and 2-phenylimidazo[1,2-A]pyrazine derivatives” (Hengrui (USA) Ltd., priority 2010, dated 2014).
pIC50: −log10 of the molar value. Where two headings read alike, the source gives them in different places.

System: Hedgehog pathway activation (GLi-luciferase reporter) in Shh Light II reporter cells
Experiment: Hedgehog pathway activation on Shh Light II reporter cells measured by luciferase activity
Format: cell-based
Conditions: hShh activation, read-out: Shh (IC50, inhibition of Hedgehog pathway activation)
Method: Hedgehog conditioned media was obtained by transfecting 293H cells with the full length gene encoding human Sonic Hedgehog (hShh) inserted into the pCMV6 expression vector, which contains a neomycin selectable marker and expresses the protein of interest with a C-terminal FLAG affinity tag. After selection in G418 containing media, conditioned media from Hedgehog expressing clones were tested for the ability to activate the hedgehog-responsive GLi-luciferase reporter in the Shh Light II cell line obtained by license from John Hopkins University (Taipale J, et al. Effects of oncogenic mutations in Smoothened and Patched can be reversed by cyclopamine. Nature 406: 1005-1009, 2000).
A test compound library was screened against hShh and 500 nM SAG (a direct agonist of the Smoothened receptor) activated 10T1/2/Smo#3 cells and Shh Light II reporter cells for the ability to block Hedgehog pathway activation. Concurrently, cell viability was measured by utilizing Celltiter-Blue® (Promega, Madison Wis.) viability assay. Active compounds were defined as those that inhibited Hedgehog signaling by greater than 50% with no concurrent loss in cell viability.
Their inhibitory activity against Hedgehog pathway activation on 10T1/2/Smo#3 cells as measured by ALP activity and Shh Light II reporter cells as measured by luciferase activity is shown in Table 1 below. In Table 1, +++ stands for an IC50 value that is less than 0.3 μM, ++ between 0.3 and 3 μM, + between 3 and 30 μM.
Additional data for compounds of the invention is shown below in Table 2. Their inhibitory activities against Hedgehog pathway activation are shown as IC50 values in μM on 10T1/2/Smo#3 cells as measured by ALP activity, or on Shh Light II reporter cells as measured by luciferase activity (hShh activation).

`Cc1ccc(-c2cn3nc(-c4ccc(C(=O)O)cn4)ccc3n2)cc1NC(=O)C(C)(C)C` [Example 459, 6-(2-(4-methyl-3-pivalamidophenyl)imidazo[1,2-b]pyridazin-6-yl)nicotinic acid] showed a pIC50 (Mus musculus, Shh Light II) of 5.03.

With `Cc1ccc(-c2cn3nc(-c4ccc(N)nc4)ccc3n2)cc1NC(=O)C(C)(C)C` [Example 402, N-(5-(6-(6-aminopyridin-3-yl)imidazo[1,2-b]pyridazin-2-yl)-2-methylphenyl)pivalamide] the pIC50 (Mus musculus, Shh Light II) was 5.81.

`CCOC(=O)CC(=O)Nc1cc(-c2cn3nc(-c4cccnc4C(F)(F)F)ccc3n2)ccc1C` [Example 435, ethyl 3-(2-methyl-5-(6-(2-(trifluoromethyl)pyridin-3-yl)imidazo[1,2-b]pyridazin-2-yl)phenylamino)-3-oxopropanoate] was tested, and the pIC50 (Mus musculus, Shh Light II) was 5.89.

With `COc1ccc2nc(-c3ccc(C)c(NC(=O)c4cccc(C=CC(=O)NO)c4)c3)cn2n1` [compound 616] the pIC50 (Mus musculus, Shh Light II) was under 5.00.

`Cc1ccc(-c2cn3nc(-c4ccc(Cl)nc4)ccc3n2)cc1NC(=O)C(C)(C)C` [Example 408, N-(5-(6-(6-chloropyridin-3-yl)imidazo[1,2-b]pyridazin-2-yl)-2-methylphenyl)pivalamide] gave a pIC50 (Mus musculus, Shh Light II) of 6.47.

`Cc1ccc(-c2cn3nc(-c4ccc(-c5nc(=O)[nH][nH]5)cc4C(F)(F)F)ccc3n2)cc1NC(=O)C(C)(C)C` [compound 590] was tested, and the pIC50 (Mus musculus, Shh Light II) was 6.34.

Work on `COc1ccc2nc(-c3ccc(C)c(NC(=O)c4ccc(S(C)(=O)=O)cc4Cl)c3)cn2n1` [Example 95, 2-chloro-N-(5-(6-methoxyimidazo[1,2-b]pyridazin-2-yl)-2-methylphenyl)-4-(methylsulfonyl)benzamide] yielded a pIC50 (Mus musculus, Shh Light II) of 5.10.

In the case of `CC(=O)Nc1ncc(-c2ccc3nc(-c4ccc(C)c(NC(=O)C(C)(C)C)c4)cn3n2)s1` [Example 447, N-(5-(6-(2-acetamidothiazol-5-yl)imidazo[1,2-b]pyridazin-2-yl)-2-methylphenyl)pivalamide], the pIC50 (Mus musculus, Shh Light II) was 6.53.

For `Cc1ccc(-c2cn3nc(-c4ccc(NC(=O)CCCCCCC(=O)NO)cc4C(F)(F)F)ccc3n2)cc1NC(=O)C(C)(C)C` [compound 530], the pIC50 (Mus musculus, Shh Light II) was 5.18.

`Cc1ccc(-c2cn3nc(-c4ccccc4O)ccc3n2)cc1NC(=O)C(C)(C)C` [Example 276, N-(5-(6-(2-hydroxyphenyl)imidazo[1,2-b]pyridazin-2-yl)-2-methylphenyl)pivalamide] showed a pIC50 (Mus musculus, Shh Light II) of 5.71.

`Cc1noc(C)c1-c1ccc2nc(-c3ccc(C(F)(F)F)c(NC(=O)C(C)(C)C)c3)cn2n1` [Example 326, N-(5-(6-(3,5-dimethylisoxazol-4-yl)imidazo[1,2-b]pyridazin-2-yl)-2-(trifluoromethyl)phenyl)pivalamide] gave a pIC50 (Mus musculus, Shh Light II) of 6.66.

For `Cc1ccc(-c2cn3nc(NC(=O)c4ncccc4Cl)ccc3n2)cc1NC(=O)C(C)(C)C` [compound 612], the pIC50 (Mus musculus, Shh Light II) was 7.11.

`Cc1ccc(-c2cn3nc(C=CC(=O)NO)ccc3n2)cc1NC(=O)C(C)(C)C` [compound 578] showed a pIC50 (Mus musculus, Shh Light II) of 5.03.

`Cc1ccc(-c2cn3nc(-c4ccc(C(=O)NOC5CCCCO5)cc4)ccc3n2)cc1NC(=O)C(C)(C)C` (stereo not drawn) [compound 584] showed a pIC50 (Mus musculus, Shh Light II) of 5.72.

`Cc1nc(-c2ccc(-c3ccc4nc(-c5ccc(C)c(NC(=O)C(C)(C)C)c5)cn4n3)cc2)no1` [compound 549] showed a pIC50 (Mus musculus, Shh Light II) of 6.69.

In the case of `Cc1ccc(-c2cn3nc(C4=CCCC4)ccc3n2)cc1NC(=O)C(C)(C)C` [Example 442, N-(5-(6-cyclopentenylimidazo[1,2-b]pyridazin-2-yl)-2-methylphenyl)pivalamide], the pIC50 (Mus musculus, Shh Light II) was 5.97.

Molecule `CC(=O)Nc1ccc(-c2ccc3nc(-c4ccc(C)c(NC(=O)C(C)(C)C)c4)cn3n2)cn1` [compound 505, N-(5-(6-(6-acetamidopyridin-3-yl)imidazo[1,2-b]pyridazin-2-yl)-2-methylphenyl)pivalamide] has a pIC50 (Mus musculus, Shh Light II) of 6.00.

Work on `CC(C)(C)C(=O)Nc1cc(-c2cn3nc(N4CC(F)(F)C4)ccc3n2)ccc1C(F)(F)F` [Example 315, N-(5-(6-(3,3-difluoroazetidin-1-yl)imidazo[1,2-b]pyridazin-2-yl)-2-(trifluoromethyl)phenyl)pivalamide] yielded a pIC50 (Mus musculus, Shh Light II) of 6.09.

`CC(C)(C)C(=O)Nc1cc(-c2cn3nc(-c4cccc(CO)c4)ccc3n2)ccc1C(F)(F)F` [Example 323, N-(5-(6-(3-(hydroxymethyl)phenyl)imidazo[1,2-b]pyridazin-2-yl)-2-(trifluoromethyl)phenyl)pivalamide] gave a pIC50 (Mus musculus, Shh Light II) of 5.59.

Work on `CCOC(=O)C=Cc1cccc(S(=O)(=O)Nc2ccc3nc(-c4ccc(C)c(NC(=O)C(C)(C)C)c4)cn3n2)c1` [compound 603] yielded a pIC50 (Mus musculus, Shh Light II) of 5.09.

Work on `Cc1ccc(-c2cn3nc(-c4ccc(O)cc4Cl)ccc3n2)cc1NC(=O)C(C)(C)C` [compound 548] yielded a pIC50 (Mus musculus, Shh Light II) of 6.12.

`Cc1ccc(-c2cn3nc(-c4cccc(CO)n4)ccc3n2)cc1NC(=O)C(C)(C)C` [Example 460, N-(5-(6-(6-(hydroxymethyl)pyridin-2-yl)imidazo[1,2-b]pyridazin-2-yl)-2-methylphenyl)pivalamide] was tested, and the pIC50 (Mus musculus, Shh Light II) was 5.95.

`CCOC(=O)C=Cc1ccc(-c2ccc3nc(-c4ccc(C)c(NC(=O)C(C)(C)C)c4)cn3n2)cc1` [compound 552] gave a pIC50 (Mus musculus, Shh Light II) of 6.45.

`Cc1ccc(-c2cn3nc(-c4cc(C(N)=NO)ccc4C)ccc3n2)cc1NC(=O)C(C)(C)C` [compound 577] was tested, and the pIC50 (Mus musculus, Shh Light II) was 7.20.

In the case of `CC(=O)Nc1ccc(-c2ccc3nc(-c4ccc(C)c(NC(=O)C(C)(C)C)c4)cn3n2)c(C)n1` [compound 504, N-(5-(6-(6-acetamido-2-methylpyridin-3-yl)imidazo[1,2-b]pyridazin-2-yl)-2-methylphenyl)pivalamide], the pIC50 (Mus musculus, Shh Light II) was 6.44.

Work on `Cc1ccc(-c2cn3nc(-c4ccc(NC(=O)CCCCCCC(=O)NO)cc4)ccc3n2)cc1NC(=O)C(C)(C)C` [compound 563] yielded a pIC50 (Mus musculus, Shh Light II) of 6.21.

`Cc1ccc(-c2cn3nc(-c4cccnc4C(F)(F)F)ccc3n2)cc1NC(=O)CCCCCCC(=O)O` [compound 553, 8-((2-methyl-5-(6-(2-(trifluoromethyl)pyridin-3-yl)imidazo[1,2-b]pyridazin-2-yl)phenyl)amino)-8-oxooctanoic acid] showed a pIC50 of 6.15.

Work on `CCOC(=O)COc1ccc(-c2ccc3nc(-c4ccc(C)c(NC(=O)C(C)(C)C)c4)cn3n2)c(C(F)(F)F)n1` [Example 476, ethyl 2-(5-(2-(4-methyl-3-pivalamidophenyl)imidazo[1,2-b]pyridazin-6-yl)-6-(trifluoromethyl)pyridin-2-yloxy)acetate] yielded a pIC50 (Mus musculus, Shh Light II) of 6.37.

For `Cc1ccc(-c2cn3nc(-c4ccc(C(F)(F)F)cn4)ccc3n2)cc1NC(=O)C(C)(C)C` [Example 457, N-(2-methyl-5-(6-(5-(trifluoromethyl)pyridin-2-yl)imidazo[1,2-b]pyridazin-2-yl)phenyl)pivalamide], the pIC50 (Mus musculus, Shh Light II) was 6.48.

`Cc1ccc(-c2cn3nc(-c4cccnc4C(F)(F)F)ccc3n2)cc1NC(=O)C(C)(C)C#N` [compound 621, 2-cyano-2-methyl-N-(2-methyl-5-(6-(2-(trifluoromethyl)pyridin-3-yl)imidazo[1,2-b]pyridazin-2-yl)phenyl)propanamide] was tested, and the pIC50 (Mus musculus, Shh Light II) was 7.28.

`Cc1ccc(-c2cn3nc(-c4ccc(O)cc4)ccc3n2)cc1NC(=O)C(C)(C)C` [compound 519] was tested, and the pIC50 (Mus musculus, Shh Light II) was 5.77.

`Cc1ccc(-c2cn3nc(-c4cccnc4C(F)(F)F)ccc3n2)cc1-c1nc(C(C)(C)C)cs1` [compound 520] gave a pIC50 (Mus musculus, Shh Light II) of 6.31.

`Cc1ccc(-c2cn3nc(-c4ccc(N)cc4)ccc3n2)cc1NC(=O)C(C)(C)C` [compound 550] was tested, and the pIC50 (Mus musculus, Shh Light II) was 6.38.
